The OligoGym collection
Where “and” joins values, the source holds several entries; their conditions need not be identical. Identical values can stand only once. After the bases stand the sugars from the 5' end (letter, count) and the backbone: PS all phosphorothioate, else s phosphorothioate and o phosphodiester by linkage. Methylation of C is not given here. e = 2'-O-(2-methoxyethyl) (MOE); k = constrained ethyl (cEt); d = 2'-deoxy (DNA)

Biological target: SOD1
Details: ASO

With “CACATCGGCCACACCATCTT (sugars e5 d10 e5, PS)” the target mRNA inhibition (HepG2, 5 µM) was 27% and 13%.

Work on “CACCCCGTCTCCGCGACTAC (sugars e5 d10 e5, PS)” yielded a target mRNA inhibition (HepG2, 4 µM) of 13%.

Work on “CACTACAGGTACTTTAAAGC (sugars e5 d10 e5, PS)” yielded a target mRNA inhibition (HepG2, 5 µM) of 18%.

Sequence “CACTGGTCCATTACTTT (sugars e3 k2 d7 k2 e3, PS)” has a target mRNA inhibition (HepG2, 3 µM) of 12%.

For “CAGACTACATCCAAGGG (sugars e2 k2 d8 k2 e3, PS)”, the target mRNA inhibition (HepG2, 0.1875 µM) was 25%, the target mRNA inhibition (HepG2, 0.75 µM) was 60% and the target mRNA inhibition (HepG2, 3 µM) was 84%. The target mRNA inhibition (HepG2, 4 µM) was 81% and the target mRNA inhibition (HepG2, 12 µM) was 91%.

Sequence “CAGACTACATCCAAGGG (sugars e2 k2 d9 k2 e2, PS)” has a target mRNA inhibition (HepG2, 0.1875 µM) of 28%, a target mRNA inhibition (HepG2, 0.75 µM) of 55% and a target mRNA inhibition (HepG2, 3 µM) of 74%. It also gave a target mRNA inhibition (HepG2, 4 µM) of 78% and a target mRNA inhibition (HepG2, 12 µM) of 91%.

Work on “CAGACTACATCCAAGGG (sugars e3 k2 d7 k2 e3, PS)” yielded a target mRNA inhibition (HepG2, 3 µM) of 53%.

“CAGGATAACAGATGAGT (sugars e2 k2 d9 k2 e2, PS)” gave a target mRNA inhibition (HepG2, 0.1875 µM) of 56%, a target mRNA inhibition (HepG2, 0.75 µM) of 89% and a target mRNA inhibition (HepG2, 3 µM) of 93%. The target mRNA inhibition (HepG2, 4 µM) was 96% and the target mRNA inhibition (HepG2, 12 µM) was 96%.

For “CAGGATACATTTCTACAG (sugars e5 d8 e5, linkages s1 o3 s9 o2 s2)”, the target mRNA inhibition (A431, 0.12 µM) was 2%, the target mRNA inhibition (A431, 0.6 µM) was 31% and the target mRNA inhibition (A431, 3 µM) was 9%. For the same sequence, the target mRNA inhibition (A431, 15 µM) was 18%, the target mRNA inhibition (HepG2, 0.222 µM) was 14% and the target mRNA inhibition (HepG2, 0.667 µM) was 31%. The target mRNA inhibition (HepG2, 2 µM) was 54% and the target mRNA inhibition (HepG2, 6 µM) was 84%.

“CAGGATACATTTCTACAGCT (sugars e5 d10 e5, linkages s1 o3 s11 o3 s1)” gave a target mRNA inhibition (A431, 0.12 µM) of 13%, a target mRNA inhibition (A431, 0.6 µM) of 24% and a target mRNA inhibition (A431, 3 µM) of 41%. The target mRNA inhibition (A431, 15 µM) was 62%, the target mRNA inhibition (HepG2, 0.222 µM) was 38% and the target mRNA inhibition (HepG2, 0.667 µM) was 70%. The target mRNA inhibition (HepG2, 2 µM) was 95% and the target mRNA inhibition (HepG2, 6 µM) was 88%.

With “CAGGATACATTTCTACAGCT (sugars e5 d10 e5, linkages s1 o4 s10 o2 s2)” the target mRNA inhibition (A431, 0.062 µM) was 18%, the target mRNA inhibition (A431, 0.185 µM) was 28% and the target mRNA inhibition (A431, 0.556 µM) was 45%. It also gave a target mRNA inhibition (A431, 1.667 µM) of 70%, a target mRNA inhibition (A431, 5 µM) of 69% and a target mRNA inhibition (A431, 15 µM) of 81%. It also gave a target mRNA inhibition (SH-SY5Y, 0.062 µM) of 0%, a target mRNA inhibition (SH-SY5Y, 0.185 µM) of 17% and a target mRNA inhibition (SH-SY5Y, 0.556 µM) of 49%. It also gave a target mRNA inhibition (SH-SY5Y, 1.667 µM) of 62%, a target mRNA inhibition (SH-SY5Y, 5 µM) of 83% and a target mRNA inhibition (SH-SY5Y, 15 µM) of 91%.

For “CAGTCAGTCCTTTAATGCTT (sugars e5 d10 e5, PS)”, the target mRNA inhibition (HepG2, 5 µM) was 35% and 29%.

“CAGTGTTTAATGTTTAT (sugars e2 k2 d9 k2 e2, PS)” showed a target mRNA inhibition (HepG2, 0.1875 µM) of 45%, a target mRNA inhibition (HepG2, 0.75 µM) of 73% and a target mRNA inhibition (HepG2, 3 µM) of 84%. For the same sequence, the target mRNA inhibition (HepG2, 4 µM) was 84%, the target mRNA inhibition (HepG2, 5 µM) was 85% and the target mRNA inhibition (HepG2, 12 µM) was 82% and 87%.

With “CAGTTTCTCACTACAGG (sugars e2 k2 d8 k2 e3, PS)” the target mRNA inhibition (HepG2, 5 µM) was 38%.

Sequence “CATCTGCTTTTTCATGGACC (sugars e5 d10 e5, PS)” has a target mRNA inhibition (HepG2, 3 µM) of 46%.

“CATGCAGGCCTTCAGTC (sugars e3 k2 d7 k2 e3, PS)” gave a target mRNA inhibition (HepG2, 3 µM) of 41%.

“CATGCAGGCCTTCAGTCAGT (sugars e5 d10 e5, PS)” was tested, and the target mRNA inhibition (HepG2, 5 µM) was 37% and 33%.

In the case of “CATTGAAACAGACATTT (sugars e3 k2 d7 k2 e3, PS)”, the target mRNA inhibition (HepG2, 3 µM) was 11%.

“CCAAGTCATCTGCTTTT (sugars e3 k2 d7 k2 e3, PS)” gave a target mRNA inhibition (HepG2, 3 µM) of 50%.

Sequence “CCAATGATGCAATGGTCTCC (sugars e5 d10 e5, PS)” has a target mRNA inhibition (HepG2, 5 µM) of 8%.

“CCAATTACACCACAAGC (sugars e2 k2 d8 k2 e3, PS)” gave a target mRNA inhibition (HepG2, 4 µM) of 66%.

“CCACACCTTCACTGGTC (sugars e3 k2 d7 k2 e3, PS)” gave a target mRNA inhibition (HepG2, 3 µM) of 36%.

For “CCACCAGTGTGCGGCCAATG (sugars e5 d10 e5, PS)”, the target mRNA inhibition (HepG2, 5 µM) was 22%.

“CCACCTTTGCCCAAGTC (sugars e3 k2 d7 k2 e3, PS)” showed a target mRNA inhibition (HepG2, 3 µM) of 91%.

With “CCATACAGGGTTTTTAT (sugars e2 k2 d9 k2 e2, PS)” the target mRNA inhibition (HepG2, 5 µM) was 34%.

Work on “CCCAATTACACCACAAG (sugars e2 k2 d9 k2 e2, PS)” yielded a target mRNA inhibition (HepG2, 0.1875 µM) of 25%, a target mRNA inhibition (HepG2, 0.75 µM) of 52% and a target mRNA inhibition (HepG2, 3 µM) of 82%. It also gave a target mRNA inhibition (HepG2, 4 µM) of 74% and a target mRNA inhibition (HepG2, 12 µM) of 97%.

With “CCCAATTACACCACAAG (sugars e3 k2 d7 k2 e3, PS)” the target mRNA inhibition (HepG2, 3 µM) was 29%.
